Data on three compounds can be found in patent US7829589B2, “Sulfonamide compounds and uses thereof” (Elixir Pharmaceuticals, Inc., priority 2005, dated 2010).

The subject of data set [1] is C57bl/6 mice. As to the kind of experiment: Ghrelin-induced food intake in mice dosed ip. The data set is classed as in vivo. Conditions: 1, 3, 10, 30 mpk ip after ghrelin ip; food intake at 1, 2, 4, 6 hours; relative to vehicle. How it is done:
Ad libidum low fat chow-fed male C57bl/6 mice were acclimated to individual housing for >5 days prior to the experiment. On the morning of the experiment food was removed from the cages and animals were then dosed ip (n=8/group) with either vehicle or ghrelin followed one minute later by a second ip injection containing either vehicle or one of several doses of compound (1, 3, 10, 30mpk ip). Immediately after the second dosing food was returned to the cages and food intake was measured 1, 2, 4 and 6 hours later.

Data set [2] in a line: Preliminary PK studies (IV/PO), oral bioavailability and brain/plasma ratio. Conditions: mouse, male diet-induced obese C57bl/6 mice; for Kp: brain and plasma, brain AUC vs plasma AUC; for bioavailability: oral bioavailability, plasma AUC PO vs IV. Format: in vivo. As to the method:
Male, diet-induced obese, ad libidum fed, C57bl/6 mice were used for these preliminary PK studies. They were dosed (n=3 mice per data point) either IV or PO. Mice ere sacrificed and the blood/brains collected at the following times: IV samples were taken at 5, 15, 30, 60, 120, 240, 480 minutes after dosing; PO samples were taken at 15, 30, 60, 120, 240, 480 minutes after dosing. Plasma and brain samples were evaluated for the presence of compound. Oral bioavailability (% F) was determined by comparing the plasma AUCIV and AUCPO. The brain/plasma ratio was determined by comparing the brain AUC and plasma AUC values.

Data set [3] deals with C57bl/6 mice. Nature of the data set: 28 days oral dosing in diet-induced obese mice: body weight and food intake. Format: in vivo. Conditions: bid po up to 28 days. From the text: (§1) Group housed, male, C57bl/6 mice received high fat diet and water ad lib to establish diet-induced obesity, and for the duration of the experiment. After acclimating to individual housing for at least 5 days, mice were then acclimated to bid oral gavage with vehicle for 7 days. Once acclimated, mice were culled into equal groups (n>10/group) according to body weight and compound dosing began. Mice received either vehicle or compound (bid, po) for periods up to 28 days, during which body weight and food intake were measured daily. Representative cohorts (based on BW) for each group were removed at 7, 14, 21 or 28 days for glucose tolerance tests and tissue analysis.

The next data set has as its system mice (DIO). Nature of the data set: Glucose tolerance test (GTT), insulin sensitivity in DIO mice. The data set is classed as in vivo.
Text: as §1
On the night prior to the GTT, mice (DIO) within each dose group (n=8/group) had their body weight measured and were then fasted overnight for 16 hours prior to the GTT. On the morning of the GTT a 40 µL blood sample was removed from the tail for baseline fasted blood glucose and plasma insulin measurements. Mice then received their normal dose of compound. One hour later mice were dosed with glucose ([…], either IP or PO) and further tail bleeds (40 µL) were taken at 15, 30, 60 and 120 minutes after the glucose dose for blood glucose and plasma insulin measurements. Mice were sacrificed following the final sample time. Baseline fasted blood glucose levels are provided in FIG. 4a for compound 57 and in FIG. 4d for compound 94.

Another data set deals with GHS-R (Homo sapiens, UniProt Q92847). Nature of the data set: GHS-R antagonist activity (Ki) in a cell based assay. A digest of the protocol: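 Transfected COS-7 cells were labelled 24 h with [^3H]-myo-inositol and preincubated 30 min at 37 °C in HEPES buffer pH 7.4 with 10 mM LiCl, optionally with 1 U/ml adenosine deaminase. Compound was applied for 45 min at 37 °C. [^3H]-inositol phosphates were extracted with perchloric acid and isolated by anion-exchange resin.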
Sequence of GHS-R (Q92847 whole entry, species assumed): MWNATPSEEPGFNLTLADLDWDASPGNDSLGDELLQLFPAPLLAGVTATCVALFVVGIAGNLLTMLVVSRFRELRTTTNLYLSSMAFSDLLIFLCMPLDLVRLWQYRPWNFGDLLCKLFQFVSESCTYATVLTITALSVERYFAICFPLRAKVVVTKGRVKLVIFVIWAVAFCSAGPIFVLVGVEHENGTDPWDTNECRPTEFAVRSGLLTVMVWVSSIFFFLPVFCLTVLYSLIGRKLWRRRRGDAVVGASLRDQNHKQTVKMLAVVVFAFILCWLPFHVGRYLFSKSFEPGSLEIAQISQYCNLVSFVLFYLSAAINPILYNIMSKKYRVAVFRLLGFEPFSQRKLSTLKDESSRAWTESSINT

For data set [4], the system named is mice. As to the kind of experiment: Plasma HbA1c and lipid profile after 28 day dosing. The data set is classed as in vivo. Conditions: at 28 days; for cholesterol levels / plasma HbA1c levels: versus vehicle.
Text: as §1
Mice are sacrificed by CO2 asphyxiation and terminal blood samples were collected via cardiac puncture. For HbA1c, whole blood is analyzed using a DCA2000+ glycated hemoglobin analyzer (Bayer Healthcare, Indianapolis, Ind.). Triglycerides, total cholesterol, and HDL-cholesterol were all measured using a Cholestech LDX lipid profile analyzer (Cholestech, Hayward, Calif.). As shown in FIG. 6 and FIG. 7, both plasma HbA1c and cholesterol levels were improved at 28 days in animals treated with compound 57 and compound 94 versus animals treated with vehicle alone.

For data set [5], the system named is mice. Nature of the data set: Fast refeed assay. Format: in vivo. As to the method:
Food is removed at 6 pm for an overnight (˜16 hour) fast. Beginning at 10 am on the next morning, mice are administered with either vehicle (e.g., saline+acetic acid, pH=5) or the compound of interest. Mice are then returned to their home cages and pre-weighed food (approximately 90 grams) is immediately returned to the food hoppers in each cage. The weight of the food remaining in the food hoppers is measured at 30 minutes, 1 hour, 2 hours, and 4 hours post compound/vehicle administration. Final body weights are then recorded for the mice.

The mark [6] stands for this setting: FIGS. 4a-4f, 7 to 28 days oral dosing.

“Also recorded” adds a separate entry of the source. Ends that are not written are not given here. Some results are limits rather than exact numbers.

In the case of `CCN(CC)CCCS(=O)(=O)N[C@H](CCc1ccccc1)c1nc(Cc2ccc(Br)cc2)no1` [Compound 57, 3-Diethylamino-propane-1-sulfonic acid {(R)-1-[3-(4-bromo-benzyl)-[1,2,4]oxadiazol-5-yl]-3-phenyl-propyl}-amide], the ghrelin-induced food intake result with C57bl/6 mice [1] is listed as “block ghrelin-induced food intake; also recorded: reduced food intake”. Moreover, in data set [2], the Kp was determined as 0.139 and the bioavailability worked out at 10.2%. Besides, in the data set on C57bl/6 mice [3], the body weight result is given as “decreased body weight; also recorded: decrease in body weight” and the food intake result is “No apparent effect on food intake”. In addition, the insulin sensitivity entry in the data set on mice (DIO) (setting [6]) was “improvement in insulin sensitivity”. The insulin sensitivity result in the data set on mice (DIO) (GTT at 7 days of oral dosing) is reported as “improved insulin sensitivity”. Also, in the data set on mice (DIO) (GTT at 21 days of oral dosing), the insulin sensitivity result is “improved insulin sensitivity”. In addition, the Ki on GHS-R was below 0.1 µM. Also, in the data set on mice [4], the cholesterol levels entry is “improved cholesterol levels” and the “plasma HbA1c levels” value is reported as “improved plasma HbA1c levels”.

`CCN(CC)CCCS(=O)(=O)N[C@H](CCc1ccccc1)c1nc(-c2ccc(OC)cc2)n[nH]1` [Compound 94, 3-Diethylamino-propane-1-sulfonic acid {(R)-1-[5-(4-methoxy-phenyl)-2H-[1,2,4]triazol-3-yl]-3-phenyl-propyl}-amide]: in the data set on C57bl/6 mice [1], the ghrelin-induced food intake result is “block ghrelin-induced food intake; also recorded: reduced food intake”. Moreover, in data set [2], the Kp worked out at 0.087 and the bioavailability came out at 63.2%. For the same compound, in the data set on C57bl/6 mice [3], the body weight result is “decreased body weight; also recorded: decrease in body weight” and the food intake result is given as “No apparent effect on food intake”. Further, the insulin sensitivity result in the data set with mice (DIO) (setting [6]) is given as “improvement in insulin sensitivity”. For the same compound, the insulin sensitivity result with mice (DIO) (GTT at 7 days of oral dosing) is “improved insulin sensitivity”. The insulin sensitivity entry in the data set on mice (DIO) (GTT at 28 days of oral dosing) is “improved insulin sensitivity”. Also, the Ki at GHS-R is below 0.1 µM. Moreover, in the data set with mice [4], the triglyceride levels entry is “improved triglyceride levels”, the cholesterol levels entry is recorded as “improved cholesterol levels” and the “plasma HbA1c levels” value is on record as “improved plasma HbA1c levels”.

As to “substance P (RPKPQQFFGLM-NH2; ends and bridges not checked; UniProt P20366 58-68, looked up)”, in the data set with mice [5], the feeding activity entry is recorded as “alters feeding activity”.
